According to US20170101383A1, “DIAMINOTRIAZINE DERIVATIVES AS HERBICIDES” (BASF SE, priority 2014, published 2017):

What was measured:
Abutilon theophrasti [1] = assay: greenhouse post-emergence treatment, ABUTH; format: in vivo; conditions: 0.500 kg/ha, scale 0 to 100
Excerpt: (§1) The seeds of the test plants were sown separately for each species. For the post-emergence treatment, the test plants were first grown to a height of 3 to 15 cm, depending on the plant habit, and only then treated with the active ingredients which had been suspended or emulsified in water. For this purpose, the test plants were either sown directly and grown in the same containers, or they were first grown separately as seedlings and transplanted into the test containers a few days prior to treatment. Depending on the species, the plants were kept at 10-25° C. or 20-35° C., respectively. The test period extended over 2 to 4 weeks. During this time, the plants were tended, and their response to the individual treatments was evaluated. Evaluation was carried out using a scale from 0 to 100. 100 means no emergence of the plants, or complete destruction of at least the aerial moieties, and 0 means no damage, or normal course of growth. A moderate herbicidal activity is given at values of at least 60, a good herbicidal activity is given at values of at least 70, and a very good herbicidal activity is given at values of at least 85. The plants used in the greenhouse experiments were of the following species: [table]

Amaranthus retroflexus [2] = assay: greenhouse post-emergence treatment, AMARE; format: in vivo; conditions: Amaranthus retroflexus, scale 0 to 100, read-out: herbicidal activity against AMARE; for pest or weed control at 500 g/ha: 0.500 kg/ha
Excerpt: as §1

Echinocloa crus-galli [3] = assay: greenhouse post-emergence treatment, ECHCG; format: in vivo; conditions: scale 0 to 100
Excerpt: as §1

Abutilon theophrasti [4] = assay: greenhouse pre-emergence treatment, ABUTH; format: in vivo; conditions: 0.500 kg/ha, scale 0 to 100
Excerpt: (§2) The seeds of the test plants were sown separately for each species. For the pre-emergence treatment, the active ingredients, which had been suspended or emulsified in water, were applied directly after sowing by means of finely distributing nozzles. The containers were irrigated gently to promote germination and growth and subsequently covered with transparent plastic hoods until the plants had rooted. This cover caused uniform germination of the test plants, unless this had been impaired by the active ingredients. Depending on the species, the plants were kept at 10-25° C. or 20-35° C., respectively. The test period extended over 2 to 4 weeks. During this time, the plants were tended, and their response to the individual treatments was evaluated. Evaluation was carried out using a scale from 0 to 100. 100 means no emergence of the plants, or complete destruction of at least the aerial moieties, and 0 means no damage, or normal course of growth. A moderate herbicidal activity is given at values of at least 60, a good herbicidal activity is given at values of at least 70, and a very good herbicidal activity is given at values of at least 85. The plants used in the greenhouse experiments were of the following species: [table]

Amaranthus retroflexus [5] = assay: greenhouse pre-emergence treatment, AMARE; format: in vivo; conditions: scale 0 to 100
Excerpt: as §2

Echinocloa crus-galli [6] = assay: greenhouse pre-emergence treatment, ECHCG; format: in vivo; conditions: 0.500 kg/ha, scale 0 to 100
Excerpt: as §2

Setaria faberi [7] = assay: greenhouse pre-emergence treatment, SETFA; format: in vivo; conditions: 0.500 kg/ha, scale 0 to 100
Excerpt: as §2

Apera spica-venti = assay: greenhouse pre-emergence treatment, APESV; format: in vivo; conditions: scale 0 to 100
Excerpt: as §2

Setaria faberi [8] = assay: greenhouse post-emergence treatment, SETFA; format: in vivo; conditions: scale 0 to 100
Excerpt: as §1

Alopecurus myosuroides = assay: greenhouse pre-emergence treatment, ALOMY; format: in vivo; conditions: scale 0 to 100
Excerpt: as §2

[9] = known from Archiv der Pharmazie, 1984, Vol. 317, S. 754; cited from earlier work

Nc1nc(Nc2c(F)c(F)c(F)c(F)c2F)nc(N2CCC2)n1 [Example 33]
herbicidal activity against ABUTH (Abutilon theophrasti [1]): very good (a very good herbicidal activity is given at values of at least 85)
pest or weed control at 500 g/ha (Amaranthus retroflexus [2]): ≥ 85%
herbicidal activity against ECHCG (Echinocloa crus-galli [3]; 0.500 kg/ha): very good (a very good herbicidal activity is given at values of at least 85)
herbicidal activity against ABUTH (Abutilon theophrasti [4]): very good (a very good herbicidal activity is given at values of at least 85)
herbicidal activity against AMARE (Amaranthus retroflexus [5]; 0.500 kg/ha): very good (a very good herbicidal activity is given at values of at least 85)
herbicidal activity against ECHCG (Echinocloa crus-galli [6]): very good (a very good herbicidal activity is given at values of at least 85)
herbicidal activity against SETFA (Setaria faberi [7]): very good (a very good herbicidal activity is given at values of at least 85)

CC1CCC(C)N1c1nc(N)nc(Nc2c(F)c(F)cc(F)c2F)n1 (centres unmarked) [Example 18]
herbicidal activity against AMARE (Amaranthus retroflexus [5]; 0.500 kg/ha): very good (a very good herbicidal activity is given at values of at least 85)
herbicidal activity against APESV (Apera spica-venti; 0.500 kg/ha): very good (a very good herbicidal activity is given at values of at least 85)
herbicidal activity against ECHCG (Echinocloa crus-galli [6]): very good (a very good herbicidal activity is given at values of at least 85)

Nc1nc(Nc2c(F)c(F)c(F)c(F)c2F)nc(N2CCCCC2)n1 [Example 5]
pest or weed control at 1000 g/ha (Amaranthus retroflexus [2]; 1.000 kg/ha): ≥ 85%
herbicidal activity against ECHCG (Echinocloa crus-galli [3]; 1.000 kg/ha): very good (a very good herbicidal activity is given at values of at least 85)
herbicidal activity against SETFA (Setaria faberi [8]; 1.000 kg/ha): very good (a very good herbicidal activity is given at values of at least 85)
herbicidal activity against ALOMY (Alopecurus myosuroides; 1.000 kg/ha): very good (a very good herbicidal activity is given at values of at least 85)
herbicidal activity against AMARE (Amaranthus retroflexus [5]; 1.000 kg/ha): very good (a very good herbicidal activity is given at values of at least 85)
herbicidal activity against APESV (Apera spica-venti; 1.000 kg/ha): very good (a very good herbicidal activity is given at values of at least 85)

CC(C)Nc1nc(Nc2ccccc2F)nc(NC(C)C)n1 [N6-(2-fluorophenyl)-N2,N4-diisopropyl-1,3,5-triazine-2,4,6-triamine]
trichomonacidal activity [9]: shows trichomonacidal activity

Nc1nc(Nc2c(F)c(F)cc(F)c2F)nc(N2CCC2)n1 [Example 34]
herbicidal activity against ABUTH (Abutilon theophrasti [1]): very good (a very good herbicidal activity is given at values of at least 85)
pest or weed control at 500 g/ha (Amaranthus retroflexus [2]): ≥ 85%
herbicidal activity against ECHCG (Echinocloa crus-galli [3]; 0.500 kg/ha): very good (a very good herbicidal activity is given at values of at least 85)
herbicidal activity against ABUTH (Abutilon theophrasti [4]): very good (a very good herbicidal activity is given at values of at least 85)
herbicidal activity against AMARE (Amaranthus retroflexus [5]; 0.500 kg/ha): very good (a very good herbicidal activity is given at values of at least 85)
herbicidal activity against ECHCG (Echinocloa crus-galli [6]): very good (a very good herbicidal activity is given at values of at least 85)
herbicidal activity against SETFA (Setaria faberi [7]): very good (a very good herbicidal activity is given at values of at least 85)

CON(C)c1nc(N)nc(Nc2c(F)c(F)c(F)c(F)c2F)n1 [Example 27]
herbicidal activity against ABUTH (Abutilon theophrasti [1]): very good (a very good herbicidal activity is given at values of at least 85)
pest or weed control at 500 g/ha (Amaranthus retroflexus [2]): ≥ 85%
herbicidal activity against SETFA (Setaria faberi [8]; 0.500 kg/ha): very good (a very good herbicidal activity is given at values of at least 85)
herbicidal activity against ABUTH (Abutilon theophrasti [4]): very good (a very good herbicidal activity is given at values of at least 85)
herbicidal activity against ALOMY (Alopecurus myosuroides; 0.500 kg/ha): very good (a very good herbicidal activity is given at values of at least 85)
herbicidal activity against AMARE (Amaranthus retroflexus [5]; 0.500 kg/ha): very good (a very good herbicidal activity is given at values of at least 85)
herbicidal activity against APESV (Apera spica-venti; 0.500 kg/ha): very good (a very good herbicidal activity is given at values of at least 85)
herbicidal activity against SETFA (Setaria faberi [7]): very good (a very good herbicidal activity is given at values of at least 85)
